Experimental data from PubChem BioAssay (NCI).
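Where inhibition never reached the appropriate level, the endpoint shown equals the highest concentration tested. Otherwise, values were interpolated linearly from a five-concentration, 48-hour dose response in 96-well plates. At the TGI there is no net growth.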

Tests used:
Assay in all cases: NCI-60 cell line screen, 48 h
[1] = tested on: UACC-257 melanoma
[2] = tested on: SF-295 CNS
[3] = tested on: HS 578T breast
[4] = tested on: K-562 leukemia
[5] = tested on: SNB-75 CNS
[6] = tested on: NCI/ADR-RES ovarian
[7] = tested on: HCC-2998 colon
[8] = tested on: UACC-62 melanoma
[9] = tested on: U251 CNS
[10] = tested on: HT29 colon
[11] = tested on: COLO 205 colon
[12] = tested on: SF-539 CNS
[13] = tested on: SNB-19 CNS
[14] = tested on: IGROV1 ovarian
[15] = tested on: SK-MEL-2 melanoma
[16] = tested on: KM12 colon
[17] = tested on: PC-3 prostate
[18] = tested on: OVCAR-3 ovarian
[19] = tested on: NCI-H23 lung
[20] = tested on: ACHN renal
[21] = tested on: HCT-116 colon
[22] = tested on: DU-145 prostate
[23] = tested on: CAKI-1 renal
[24] = tested on: RXF 393 renal
[25] = tested on: MOLT-4 leukemia
[26] = tested on: EKVX NSCLC
[27] = tested on: SK-MEL-5 melanoma
[28] = tested on: CCRF-CEM leukemia
[29] = tested on: UO-31 renal
[30] = tested on: HL-60(TB) leukemia
[31] = tested on: BT-549 breast
[32] = tested on: OVCAR-5 ovarian
[33] = tested on: NCI-H522 lung
[34] = tested on: T-47D breast
[35] = tested on: HOP-92 NSCLC
[36] = tested on: RPMI-8226 leukemia
[37] = tested on: M14 melanoma
[38] = tested on: LOX IMVI melanoma
[39] = tested on: OVCAR-8 ovarian
[40] = tested on: MCF7 breast
[41] = tested on: HOP-62 NSCLC
[42] = tested on: MDA-MB-231 breast
[43] = tested on: SK-OV-3 ovarian
[44] = tested on: NCI-H226 lung
[45] = tested on: SR leukemia
[46] = tested on: HCT-15 colon
[47] = tested on: A549 NSCLC
[48] = tested on: SW-620 colon
[49] = tested on: NCI-H460 lung
[50] = tested on: SF-268 CNS
[51] = tested on: SK-MEL-28 melanoma
[52] = tested on: MDA-N
[53] = tested on: SN12C renal
[54] = tested on: MALME-3M melanoma
[55] = tested on: 786-0 renal
[56] = tested on: MDA-MB-435

CC(=O)OCC1OC(NC(=S)CCSc2nc3ccccc3c(=O)n2-c2ccccc2)C(OC(C)=O)C(OC(C)=O)C1OC(C)=O (stereo unspecified)
TGI [1]: > 100 µM | TGI [2]: > 100 µM | TGI [3]: > 100 µM | TGI [4]: > 100 µM | TGI [5]: 60.7 µM | TGI [6]: > 100 µM | TGI [7]: > 100 µM | TGI [8]: > 100 µM | TGI [9]: > 100 µM | TGI [10]: > 100 µM | TGI [11]: > 100 µM | TGI [12]: 34 µM | TGI [13]: > 100 µM | TGI [14]: 25.1 µM | TGI [15]: 76.3 µM | TGI [16]: > 100 µM | TGI [17]: > 100 µM | TGI [18]: > 100 µM | TGI [19]: > 100 µM | TGI [20]: > 100 µM | TGI [21]: > 100 µM | TGI [22]: > 100 µM | TGI [23]: > 100 µM | TGI [24]: 58.2 µM | TGI [25]: > 100 µM | TGI [26]: > 100 µM | TGI [27]: > 100 µM | TGI [28]: > 100 µM | TGI [29]: > 100 µM | TGI [30]: 88.1 µM | TGI [31]: > 100 µM | TGI [32]: > 100 µM | TGI [33]: > 100 µM | TGI [34]: > 100 µM | TGI [35]: 98.1 µM | TGI [36]: > 100 µM | TGI [37]: > 100 µM | TGI [38]: > 100 µM | TGI [39]: > 100 µM | TGI [40]: > 100 µM | TGI [41]: > 100 µM | TGI [42]: > 100 µM | TGI [43]: > 100 µM | TGI [44]: > 100 µM | TGI [45]: > 100 µM | TGI [46]: > 100 µM | TGI [47]: > 100 µM | TGI [48]: > 100 µM | TGI [49]: > 100 µM | TGI [50]: > 100 µM | TGI [51]: > 100 µM | TGI [52]: > 100 µM | TGI [53]: > 100 µM | TGI [54]: > 100 µM | TGI [55]: > 100 µM | TGI [56]: > 100 µM
